This is an account of results in ChEMBL document CHEMBL4477251, “Vialinin A and thelephantin G, potent inhibitors of tumor necrosis factor-α production, inhibit sentrin/SUMO-specific protease 1 enzymatic activity” (Bioorg Med Chem Lett, 2016).

The target of assay [1] is T1, Sentrin-specific protease 1 (Homo sapiens) (UniProt Q9P0U3).
T1 sequence (whole entry): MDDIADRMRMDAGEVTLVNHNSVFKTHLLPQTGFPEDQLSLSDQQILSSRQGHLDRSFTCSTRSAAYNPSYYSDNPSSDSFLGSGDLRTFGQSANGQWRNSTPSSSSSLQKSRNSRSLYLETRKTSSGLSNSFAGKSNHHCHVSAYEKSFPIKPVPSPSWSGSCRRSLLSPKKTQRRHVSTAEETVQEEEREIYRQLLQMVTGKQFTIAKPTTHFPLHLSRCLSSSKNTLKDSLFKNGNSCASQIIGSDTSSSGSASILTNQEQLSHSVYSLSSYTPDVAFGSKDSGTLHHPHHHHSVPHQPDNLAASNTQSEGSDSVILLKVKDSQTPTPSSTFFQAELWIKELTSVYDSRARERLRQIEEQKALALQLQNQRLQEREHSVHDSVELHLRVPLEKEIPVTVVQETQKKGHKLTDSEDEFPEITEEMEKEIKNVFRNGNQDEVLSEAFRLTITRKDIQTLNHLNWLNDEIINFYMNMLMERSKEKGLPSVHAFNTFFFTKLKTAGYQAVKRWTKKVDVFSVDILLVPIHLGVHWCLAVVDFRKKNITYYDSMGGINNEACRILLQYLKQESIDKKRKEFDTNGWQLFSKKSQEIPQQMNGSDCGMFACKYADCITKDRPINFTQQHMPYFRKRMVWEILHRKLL
Description: Inhibition of SENP1 in human KU812 cells preincubated for 20 mins followed by addition of HA-SUMO1-VS as substrate measured after 2 hrs by immunoblot analysis. Format: cell-based.

Assay [2] addresses T2, Sentrin-specific protease 1 (Homo sapiens, UniProt Q9P0U3).
T2 sequence (Q9P0U3 whole entry): T1 sequence (whole entry)
Description: Inhibition of recombinant human 6His-tagged SENP1 catalytic domain expressed in Escherichia coli preincubated for 15 mins followed by addition of SUMO1-AMC as substrate measured after 1 hr by fluorescence analysis.

Assay [3] concerns the target T2, Sentrin-specific protease 1. Description: Inhibition of full-length recombinant human 6His-tagged SENP1 expressed in Escherichia coli BL21 (DE3) preincubated for 15 mins followed by addition of SUMO1-AMC as substrate measured after 1 hr by fluorescence analysis.
For assay [4], the system named is RBL-2H3. Description: Inhibition of TNF-alpha production in antigen-stimulated rat RBL2H3 cells measured after 15 mins by ELISA. Conditions: RBL-2H3, 0.25 h.
The test system of assay [5] is Mast cell. Description: Inhibition of TNF-alpha production in mouse bone marrow-derived mast cells measured after 15 mins by ELISA. It is filed as functional, cell-based. Conditions: 0.25 h.
In assay [6] the target is T2, Sentrin-specific protease 1. Description: Binding affinity to recombinant human 6His-tagged SENP1 catalytic domain expressed in Escherichia coli.
For assay [7] the target is unchanged. Description: Binding affinity to full-length recombinant human 6His-tagged SENP1 expressed in Escherichia coli BL21 (DE3).

Structures are written as SMILES. Calls of active or inactive are those of the source. The rule behind the calls is not given here.

As for `CCN1C(=O)C=CC1=O`, in assay [1], the inhibition result is “Active”.

`Cc1c(C)c(-c2ccc(OCc3cn(CCCCCCNC(=O)CCCC[C@@H]4SC[C@@H]5NC(=O)N[C@@H]54)nn3)cc2)c(O)c(O)c1-c1ccc(O)cc1`: the IC50 in assay [2] is 9730 nM; in assay [3], more than 50000 nM.

As to `Cc1c(C)c(-c2ccc(O)cc2)c(O)c(O)c1-c1ccc(O)cc1`, the IC50 was found to be 3760 nM in assay [2] and 2710 nM in assay [3]. Moreover, the inhibition entry in assay [1] is “Active”.

As to `O=C1C(O)=C(c2ccc(O)cc2)C(=O)C(O)=C1c1ccc(O)cc1`, the IC50 turned out to be 6100 nM in assay [2] and 3790 nM in assay [3].

In assay [4], `O=C(Cc1ccc(O)cc1)Oc1c(OC(=O)Cc2ccc(O)cc2)c(-c2ccc(O)cc2)c(O)c(O)c1-c1ccc(O)cc1` registered an IC50 of 3.5 nM.

Regarding `O=C(Cc1ccccc1)Oc1c(OC(=O)Cc2ccccc2)c(-c2ccc(O)cc2)c(O)c(O)c1-c1ccc(O)cc1` [VIALININ A], the IC50 was 0.04 nM in assay [5], 1890 nM in assay [2] and 1640 nM in assay [3]. Further, the Ki in assay [6] was 930 nM; in assay [7], 1070 nM. Moreover, the inhibition result in assay [1] is “Active”.
